Test results: patent publication US6153190A, “Erythropoietin receptor antibodies” (priority 1997, dated 2000)

Tests used:
Format in all cases: cell-based
erythropoietin (Epo) [1] = test: Inhibition of Epo-induced proliferation of UT7-Epo cells; conditions: stated for all three assays
Protocol: An assay for the measurement of Epo activity on the proliferation of UT7Epo cells, which are dependent on Epo for growth [Komatsu et al., Blood, 82:456-464 (1993)] was performed as follows. The Epo used in the experiment is Epogen (2000 U/ml) [Amgen, Thousand Oaks, Calif.], diluted in phosphate buffered saline (PBS) and human serum albumin (HSA) for storage at 4° C. at 200 U/ml. Dilutions of cleaved EpoR or EpoRFc protein samples were made, so that final concentrations ranged from 0.001 to 100 ng/ml.
Samples of either EpoR or EpoRFc were added to wells at 10 ul/well in quadruplicate. Epo (0.2 U/ml) was added to each well. UT7Epo cells (1×10^5 cells/ml) were plated at 100 ul/well. After the plates were incubated at 37° C. for three days, 10 ul/well of ^3 H-thymidine (diluted to […] in IMDM+10% fetal calf serum (FCS)) were added to a final concentration of 10 uCi/ml. Plates were incubated at 37° C. for four hours with ^3 H-thymidine. The 96-well plates were harvested onto glass fiber filters using the Tomtec plate harvester with 10% cold TCA and cold 95% ethanol. Solid scintillant was melted onto the filters and the samples counted. The mean and standard error of quadruplicate samples was determined.
The data were reported as the percent of positive (0.2 U/ml) Epo control and are illustrated in FIG. 1.

erythropoietin (Epo) [2] = test: Inhibition of Epo-induced proliferation of 32D/Epo wt cells; conditions: stated for all three assays
Protocol: Another assay was performed for the measurement of Epo activity on the proliferation of 32D/Epo wt cells (Miura, O. et al., Mol. Cell. Biol., 13:1788-1795 (1993)). 32D/Epo wt is an IL-3 dependent cell line transfected with the human Epo receptor.
This assay is performed as described in Part A above, with the modification that the each well contains 1 U/ml Epo. The results of this assay are illustrated in FIG. 2.

erythropoietin (Epo) [3] = test: Inhibition of Epo-induced CFU-E colony formation; conditions: murine bone marrow CFU-E; stated for all three assays
Protocol: A third assay for measuring the ability of Epo to stimulate the differentiation of murine bone marrow cells to hemoglobin producing mature erythrocytes (CFU-E assay) was performed as described below.
Murine bone marrow cells were flushed from the femur of female B2D6F1 mice. The marrow cells (1×10^5 cells/ml final concentration) were mixed with IMDM, 25% FCS (final) and methylcellulose (0.8% final). 0.4 ml cells was plated per well of 24-well TC plate. EpoRFc (40 ul/well) samples were added and Epo (1 U/ml) was added to each well. Plates were incubated at 37° C., 5% CO2, 6% O2 for two days.
CFU-E colonies containing 8 or more red cells were counted. The mean and standard error of triplicate samples were determined and data reported as the percent of the positive (1 U/ml) Epo control. The results of this assay are illustrated in FIG. 3.

Measured: neutralization of the biological activity of Epo

EpoR: monomeric EpoR extracellular domain protein cleaved from EpoRFc with Factor Xa
able to bind, and thereby neutralize: all assays above
